Source: patent US8729096B2, “Imidazolidine-2,4-dione derivatives as N-formyl peptide receptor 2 modulators” (Allergan, Inc., priority 2012, dated 2014)

Target: T1, FPR2 (Homo sapiens, UniProt P25090)
T1 construct: expressed in transfected cells
T1 sequence (P25090 1-351): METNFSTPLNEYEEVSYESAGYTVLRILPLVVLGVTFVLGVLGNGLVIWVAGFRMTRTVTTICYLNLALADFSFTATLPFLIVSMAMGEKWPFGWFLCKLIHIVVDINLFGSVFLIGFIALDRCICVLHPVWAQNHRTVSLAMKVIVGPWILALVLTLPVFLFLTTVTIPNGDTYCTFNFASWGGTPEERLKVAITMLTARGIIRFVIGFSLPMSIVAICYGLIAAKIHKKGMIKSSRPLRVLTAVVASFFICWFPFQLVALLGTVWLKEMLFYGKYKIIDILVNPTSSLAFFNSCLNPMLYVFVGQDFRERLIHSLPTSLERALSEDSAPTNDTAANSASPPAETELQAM
Experiment: FLIPR Tetra compound-induced calcium activity in CHO-Ga16 cells stably expressing FPR2
Type: cell-based
Details: calcium activity on FLIPR Tetra; for Efficacy (fraction): efficacy given as a fraction; for EC50: tested at 0.61 to 10,000 nM
Experimental: CHO-Ga16 cells stably expressing FPR2 were cultured in (F12, 10% FBS, 1% PSA, 400 μg/ml geneticin and 50 μg/ml hygromycin) and HEK-Gqi5 cells stable expressing FPR2 were cultured in (DMEM high glucose, 10% FBS, 1% PSA, 400 μg/ml geneticin and 50 μg/ml hygromycin). In general, the day before the experiment, 18,000 cells/well were placed in a 384-well clear bottom poly-d-lysine coated plate. The following day the screening compound-induced calcium activity was assayed on the FLIPR^Tetra. The drug plates were prepared in 384-well microplates using the EP3 and the MultiPROBE robotic liquid handling systems. Compounds were tested at concentrations ranging from 0.61 to 10,000 nM. Results are expressed as EC50 (nM) and efficacy values.

Compound	Efficacy (fraction)	EC50 [nM]
CCC1(C(C)C)NC(=O)N(CC(=O)Nc2ccc(Br)cc2)C1=O (stereo not shown) [Compound 1, N-(4-bromophenyl)-2-(4-ethyl-4-isopropyl-2,5-dioxoimidazolidin-1-yl)acetamide]	(0.99)	56
O=C(CN1C(=O)C2CCCN2C1=O)Nc1ccc(Br)cc1 (stereo not shown) [Compound 2, N-(4-bromophenyl)-2-(1,3-dioxotetrahydro-1H-pyrrolo[1,2-c]imidazol-2(3H)-yl)acetamide]	(0.93)	343
O=C(CN1C(=O)C2CCCCN2C1=O)Nc1ccc(Br)cc1 (stereo not shown) [Compound 3, N-(4-bromophenyl)-2-(1,3-dioxohexahydroimidazo[1,5-a]pyridin-2(3H)-yl)acetamide]	(1.0)	243
COCC1(C)NC(=O)N(CC(=O)Nc2ccc(Br)cc2)C1=O (stereo not shown) [Compound 5]	(1.00)	306
O=C(CN1C(=O)NC2(CCC2)C1=O)Nc1ccc(Br)cc1 [Compound 6, N-(4-Bromophenyl)-2-(6,8-dioxo-5,7-diazaspiro[3.4]octan-7-yl)acetamide]	(1.00)	647
